Assay results published in article PMC10428001 (Cancer research, 2022).
Several values for one entry are separate records, joined by “and”; a condition that tells them apart may be missing. Identical values can stand only once. Like-named read-outs stand apart in the source and are kept apart here. One block for each compound: values may come before it.

Tests used:
[1] = test system: Ba/F3 cells WT EGFR (+ rhEGF); test: Ba/F3 cell viability; type: cell-based; settings: read-out: IC50 (average ± SD)
[2] = test system: Ba/F3 cells HER2 A775_G776insYVMA; test: Ba/F3 cell viability; type: cell-based; settings: read-out: IC50 (average ± SD)
[3] = test system: Ba/F3 cells HER2 P780_Y781insGSP; test: Ba/F3 cell viability; type: cell-based; settings: read-out: IC50 (average ± SD)
[4] = test system: Ba/F3 cells HER2 G776delinsVC; test: Ba/F3 cell viability; type: cell-based; settings: read-out: IC50 (average ± SD)
[5] = test system: Ba/F3 cells HER2 M774delinsWLV; test: Ba/F3 cell viability; type: cell-based; settings: read-out: IC50 (average ± SD)
Ba/F3 cells HER2 S310F = test: Ba/F3 cell viability; type: cell-based; settings: read-out: IC50 (average ± SD)
Ba/F3 cells HER2 L755S = test: Ba/F3 cell viability; type: cell-based; settings: read-out: IC50 (average ± SD)
Ba/F3 cells HER2 V777L = test: Ba/F3 cell viability; type: cell-based; settings: read-out: IC50 (average ± SD)
Ba/F3 cells HER2 V862I = test: Ba/F3 cell viability; type: cell-based; settings: read-out: IC50 (average ± SD)
[6] = test system: Ba/F3 cells HER2 755_757LREdelinsRP; test: Ba/F3 cell viability; type: cell-based; settings: read-out: IC50 (average ± SD)
[7] = test system: Ba/F3 cells HER2 amplification; test: Ba/F3 cell viability; type: cell-based; settings: read-out: IC50 (average ± SD)
MCF7 = test: Cancer cell viability; type: cell-based, human; settings: read-out: IC50 (average ± SD)
H1781 = test: Cancer cell viability; type: cell-based, human; settings: read-out: IC50 (average ± SD)
H1819 = test: Cancer cell viability; type: cell-based; settings: Homo sapiens, NCI-H1819, 72 h, read-out: IC50 (average ± SD)
Calu-3 [8] = test: Cancer cell viability; type: cell-based; settings: Homo sapiens, Calu-3, 72 h, read-out: IC50 (average ± SD)
BT-474 = test: Cancer cell viability; type: cell-based, human; settings: read-out: IC50 (average ± SD)
SKBR3 = test: Cancer cell viability; type: cell-based, human; settings: read-out: IC50 (average ± SD)
NCI-N87 = test: Cancer cell viability; type: cell-based, human; settings: read-out: IC50 (average ± SD)
[9] = test system: WT EGFR vs all HER2 mutants Ba/F3 cells; test: Selectivity index from Ba/F3 IC50 ratios; type: cell-based; settings: average over HER2 mutants
[10] = test system: HER YVMA Ba/F3 cells containing a concurrent C805S mutation; test: Ba/F3 cell viability, concurrent C805S mutation; type: cell-based; settings: HER YVMA Ba/F3 cells with concurrent C805S mutation
A-431 = test: Cancer cell viability; type: cell-based, human; settings: read-out: IC50 (average ± SD); A-431, epidermoid, EGFR amp, 72 h
DFCI 429 = test: Patient-derived cancer cell viability; type: cell-based, human; settings: read-out: IC50 (average ± SD); DFCI 429, NSCLC, HER2 amp, 3 days
DFCI 315 [11] = test: Patient-derived tumor spheroid viability; type: cell-based, human; settings: read-out: IC50 (average ± SD); DFCI 315, NSCLC, HER2 ins, 6 days
[12] = Pharmacokinetic properties in mice; type: in vivo
Calu-3 tumors [13] = test: Calu-3 xenograft efficacy; type: in vivo; settings: Calu-3 in NCr nude mice, oral, 39 days; JBJ-08-178-01 at 50 mg/kg BID
Calu-3 tumors [14] = test: TUNEL assay in Calu-3 tumors; type: in vivo, NCr nude mice; settings: 50 mg/kg BID, 3 days dosing
Calu-3 [15] = test: Caspase-3/7 activity, live-cell imaging; type: cell-based, human; settings: Calu-3, live-cell imaging, 3 days
DFCI 315 [16] = test: AO/PI live/dead staining of tumor spheroids; type: cell-based, human; settings: DFCI 315 tumor spheroids, 5 days
WT HER2 = WT HER2 (Homo sapiens, UniProt P04626); settings: purified kinase 5 nmol/L, 100 μmol/L ATP
[17] = test system: Ba/F3 cells harboring various HER2 exon 20 insertions or amplification; settings: read-out: IC50 across all exon 20 mutants or amplification, cell growth
HER2 [18] = target: T1, HER2 (Homo sapiens, UniProt P04626); settings: Calu-3 cells, in the presence of cycloheximide
HER2 [19] = target: T1, HER2; settings: Calu-3 cells
HER2 mutant lung cancer = settings: phase II trial, patients with lung cancer harboring HER2 exon 20 mutations ref 34; cited from earlier work
[20] = Ba/F3 WT EGFR (+ rhEGF 10 ng/mL), 3 days
[21] = Ba/F3 HER2 A775_G776insYVMA, 3 days
[22] = Ba/F3 HER2 P780_Y781insGSP, 3 days
[23] = Ba/F3 HER2 G776delinsVC, 3 days
[24] = Ba/F3 HER2 M774delinsWLV, 3 days
[25] = Ba/F3 HER2 amplification, 3 days

T1 sequence (P04626 23-1255): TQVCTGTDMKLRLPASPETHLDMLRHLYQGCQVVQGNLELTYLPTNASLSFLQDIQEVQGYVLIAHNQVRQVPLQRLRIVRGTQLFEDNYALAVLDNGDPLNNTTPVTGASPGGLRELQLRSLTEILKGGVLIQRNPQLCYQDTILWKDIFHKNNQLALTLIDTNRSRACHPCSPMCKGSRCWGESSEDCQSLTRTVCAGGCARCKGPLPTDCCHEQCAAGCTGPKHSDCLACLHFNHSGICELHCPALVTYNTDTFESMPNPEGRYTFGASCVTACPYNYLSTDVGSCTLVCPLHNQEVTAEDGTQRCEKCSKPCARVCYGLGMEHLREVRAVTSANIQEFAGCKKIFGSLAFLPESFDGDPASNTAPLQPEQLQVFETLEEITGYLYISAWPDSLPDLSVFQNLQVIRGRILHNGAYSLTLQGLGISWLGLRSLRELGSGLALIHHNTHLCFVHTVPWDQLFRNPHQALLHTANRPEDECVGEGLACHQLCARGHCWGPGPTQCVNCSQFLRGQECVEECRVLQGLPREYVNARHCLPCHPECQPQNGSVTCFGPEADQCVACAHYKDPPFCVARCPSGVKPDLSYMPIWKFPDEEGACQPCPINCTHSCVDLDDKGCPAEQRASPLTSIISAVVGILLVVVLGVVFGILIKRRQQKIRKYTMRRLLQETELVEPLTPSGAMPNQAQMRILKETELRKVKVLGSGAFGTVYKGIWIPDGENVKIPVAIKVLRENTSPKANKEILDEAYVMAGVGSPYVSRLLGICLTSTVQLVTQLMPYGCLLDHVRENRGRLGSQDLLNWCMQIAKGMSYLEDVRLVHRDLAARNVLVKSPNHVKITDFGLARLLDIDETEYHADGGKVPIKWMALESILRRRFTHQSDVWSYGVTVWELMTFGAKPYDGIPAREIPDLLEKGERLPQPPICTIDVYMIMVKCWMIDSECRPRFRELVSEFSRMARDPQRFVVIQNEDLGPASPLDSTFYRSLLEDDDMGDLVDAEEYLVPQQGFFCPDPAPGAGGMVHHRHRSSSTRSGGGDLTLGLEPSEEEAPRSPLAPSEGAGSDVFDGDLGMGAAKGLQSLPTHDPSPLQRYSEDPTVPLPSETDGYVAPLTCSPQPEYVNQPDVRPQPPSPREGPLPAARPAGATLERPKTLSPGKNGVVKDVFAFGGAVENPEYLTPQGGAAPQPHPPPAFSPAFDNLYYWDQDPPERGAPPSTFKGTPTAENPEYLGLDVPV
WT HER2, sequence (P04626 720-987 limits assumed): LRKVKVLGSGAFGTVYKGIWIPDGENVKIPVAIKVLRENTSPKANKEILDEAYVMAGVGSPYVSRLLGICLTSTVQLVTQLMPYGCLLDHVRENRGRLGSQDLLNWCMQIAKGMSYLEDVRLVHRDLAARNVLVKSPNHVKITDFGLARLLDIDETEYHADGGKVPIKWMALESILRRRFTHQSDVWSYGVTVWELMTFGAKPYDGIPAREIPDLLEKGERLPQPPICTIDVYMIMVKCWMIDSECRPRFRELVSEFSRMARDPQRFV

- IC50 ([1]; Mus musculus, BaF3, 72 h): 302 ± 64.8 nM
- IC50 ([2]; Mus musculus, BaF3, 72 h): 202 ± 70.2 nM
- IC50 ([3]; Mus musculus, BaF3, 72 h): 210 ± 56 nM
- IC50 ([4]; Mus musculus, BaF3, 72 h): 65.3 ± 49.7 nM
- IC50 ([5]; Mus musculus, BaF3, 72 h): 621 ± 333 nM
- IC50 (Ba/F3 cells HER2 S310F; Mus musculus, BaF3, 72 h): 530 ± 407 nM
- IC50 (Ba/F3 cells HER2 L755S; Mus musculus, BaF3, 72 h): 845 ± 381 nM
- IC50 (Ba/F3 cells HER2 V777L; Mus musculus, BaF3, 72 h): 13.1 ± 5.79 nM
- IC50 (Ba/F3 cells HER2 V862I; Mus musculus, BaF3, 72 h): 336 ± 74.5 nM
- IC50 ([6]; Mus musculus, BaF3, 72 h): 130 ± 18 nM
- IC50 ([7]; Mus musculus, BaF3, 72 h): 177 ± 88.6 nM
- IC50 (MCF7; Homo sapiens, MCF7, 72 h): 6790 nM
- IC50 (H1781; Homo sapiens, NCI-H1781, 72 h): 2420 nM
- IC50 (H1819): 341 ± 171 nM
- IC50 (Calu-3 [8]): 248 ± 220 nM
- IC50 (BT-474; Homo sapiens, BT-474, 72 h): 3780 nM
- IC50 (SKBR3; Homo sapiens, SK-BR-3, 72 h): 5390 nM
- IC50 (NCI-N87; Homo sapiens, NCI-N87, 72 h): 16.3 ± 6.6 nM
Compound: CS(=O)(=O)CCNCc1ccc(-c2ccc3ncnc(Nc4ccc(OCc5cccc(F)c5)c(Cl)c4)c3c2)o1 [lapatinib]

- IC50 [1, 20]: 368 ± 103 nM
- IC50 [2, 21]: 13.6 ± 2.24 nM
- IC50 [3, 22]: 7.38 ± 2.66 nM
- IC50 [4, 23]: 6.01 ± 2.94 nM
- IC50 [5, 24]: 21 ± 12 nM
- IC50 (Ba/F3 cells HER2 S310F; Ba/F3 HER2 S310F, 3 days): 41.5 ± 13.4 nM
- IC50 (Ba/F3 cells HER2 L755S; Ba/F3 HER2 L755S, 3 days): 140 ± 45.3 nM
- IC50 (Ba/F3 cells HER2 V777L; Ba/F3 HER2 V777L, 3 days): 2.71 ± 0.41 nM
- IC50 (Ba/F3 cells HER2 V862I; Ba/F3 HER2 V862I, 3 days): 284 ± 118 nM
- IC50 ([6]; Ba/F3 HER2 755_757LREdelinsRP, 3 days): 7.24 ± 2.28 nM
- IC50 [7, 25]: 15.3 ± 11.4 nM
- IC50 (MCF7; MCF7, breast cancer, no ERBB mutation, 72 h): 967 ± 429 nM
- IC50 (A-431): 378 ± 77.1 nM
- IC50 (H1781; H1781, NSCLC, HER2 ins, 72 h): 151 ± 52.7 nM
- IC50 (DFCI 429): 252 ± 179 nM
- IC50 (DFCI 315 [11]): 456 ± 117 nM
- IC50 (BT-474; BT-474, breast cancer, HER2 amp, 72 h): 43.7 ± 11.1 nM
- IC50 (SKBR3; SKBR3, breast cancer, HER2 amp, 72 h): 79.4 ± 56.5 nM
- IC50 (NCI-N87; NCI-N87, HER2 amp, 72 h): 1.2 nM
- AUCINF_obs ([12]; IV (2 mg/kg)): 323,166 min*ng/mL
- AUClast ([12]; IV (2 mg/kg)): 317,601 min*ng/mL
- CI_obs ([12]; IV (2 mg/kg)): 6.26 mL/min/kg
- Cmax ([12]; IV (2 mg/kg)): 5.68 µM
- MRTINF_obs ([12]; IV (2 mg/kg)): 1.42 h
- T1/2 ([12]; IV (2 mg/kg)): 1.41 h
- Tmax ([12]; IV (2 mg/kg)): 0.36 h
- Vss_obs ([12]; IV (2 mg/kg)): 0.5 L/kg
- AUCINF_obs ([12]; PO (10 mg/kg)): 243,219 min*ng/mL
- AUClast ([12]; PO (10 mg/kg)): 166,787 min*ng/mL
- CI_obs ([12]; PO (10 mg/kg)): 48.87 mL/min/kg
- Cmax ([12]; PO (10 mg/kg)): 1.12 µM
- F ([12]; PO (10 mg/kg)): 10%
- T1/2 ([12]; PO (10 mg/kg)): 3.65 h
- Tmax ([12]; PO (10 mg/kg)): 2.33 h
- inhibition of WT HER2 in biochemical inhibition assays (WT HER2): potently inhibited WT HER2
- IC50 [17]: < 50 nM
Compound: CCOc1cc2ncc(C#N)c(Nc3ccc(Oc4ccn5ncnc5c4)c(C)c3)c2cc1NC(=O)/C=C/CN(C)C [JBJ-08-178-01]
- Selectivity index (IC50 ratio = WT EGFR ÷ all HER2 mutants) [9]: 6.8 and 6.83
- growth inhibition [10]: did not inhibit the growth
- tumor growth (Calu-3 tumors [13]): comparable tumor regression with neratinib
- cell apoptosis (TUNEL) (Calu-3 tumors [14]): significantly increased cell apoptosis compared with vehicle
- apoptosis (caspase-3/7) (Calu-3 [15]): rapid and greater degree of apoptosis compared with cells treated with poziotinib, neratinib, or tucatinib
- PI-positive dead cells (DFCI 315 [16]): significantly increased PI-positive dead cells
- protein stability of HER2 (HER2 [18]): decreased protein stability of HER2 compared with vehicle
- HER2 endocytosis (pHrodo fluorescence signal) (HER2 [19]): dramatic increase of fluorescence signal in the cytoplasm

Compound: COc1cc2ncnc(Nc3ccc(F)c(Cl)c3)c2cc1NC(=O)/C=C/CN1CCCCC1 [dacomitinib]
- overall response rate (HER2 mutant lung cancer): 12%

Compound: C=CC(=O)N1CCC[C@@H](n2nc(C(=O)Nc3ccc(CC(=O)N(C)C)c(C)c3C)c3c(N)ncnc32)C1 [TAS0728]
- IC50 [1, 20]: 399 ± 77.3 nM
- IC50 [2, 21]: 256 ± 175 nM
- IC50 [3, 22]: 80.1 ± 27 nM
- IC50 [4, 23]: 626 ± 130 nM
- IC50 [5, 24]: 894 ± 509 nM
- IC50 (Ba/F3 cells HER2 S310F; Ba/F3 HER2 S310F, 3 days): 238 ± 95 nM
- IC50 (Ba/F3 cells HER2 L755S; Ba/F3 HER2 L755S, 3 days): 3760 ± 3080 nM
- IC50 (Ba/F3 cells HER2 V777L; Ba/F3 HER2 V777L, 3 days): 19.2 ± 12.2 nM
- IC50 (Ba/F3 cells HER2 V862I; Ba/F3 HER2 V862I, 3 days): 1320 ± 506 nM
- IC50 [7, 25]: 288 ± 20.6 nM
- Selectivity index (IC50 ratio = WT EGFR ÷ all HER2 mutants) [9]: 0.48
